Assay results as given in ChEMBL document CHEMBL1159203, “Agelastatins C and D, new pentacyclic bromopyrroles from the sponge Cymbastela sp., and potent arthropod toxicity of (-)-agelastatin A” (J Nat Prod, 1998).

System: Artemia franciscana
Experiment: Toxicity against Artemia franciscana nauplii larvae
Assay type: organism-based
Conditions: in vivo

Compound: CN1C(=O)N[C@@]2(O)[C@@H]3NC(=O)c4ccc(Br)n4[C@@H]3C[C@@]12O
- LC50: 220 ppm
